How the values were obtained:
[1] = tested on: adult carpenter ants (Camponotus pennsylvanicus); assay: Carpenter ant spray test; type: in vivo
Method: The effect of cinnamic aldehyde on adult carpenter ants (Camponotus pennsylvanicus) was evaluated as follows. Twenty adult ants were placed in a 20 liter stainless steel pail with lid. The test formulations were prepared and used within one hour and were shaken immediately before spraying the insects. 8 ml of test solution was sprayed with a fine spray (Gilmour hand sprayer). […] Cinnamic aldehyde (2%, 20,000 ppm) in 2% Tween 80 and 6% NaHCO3 in water gave 100% mortality at all time points. Vehicle in 2% Tween 80 and 6% NaHCO3. Raid (active ingredients: permethrin, pyrethrins and PBO) was used as a positive control and gave 90% mortality at 0.5 hr with 100% mortality at all other time points.

[2] = tested on: melon aphids; assay: Melon aphid whole plant spray with cinnamaldehyde and saponin; type: in vivo, Aphis gossypii Glover; conditions: whole plant sprayed to drip
Method: Whole nonflowering potted chrysanthemum plants were used to assay melon aphids. Two plants were treated for each treatment and two leaves, one from the top of the plant and one from the bottom of the plant, were sampled to determine the number of living and dead melon aphids. Three treatments were applied: 1.0% CNMA plus 0.5% saponin, 0.5% CNMA plus 0.25% saponin, and 0.5% saponin only. The whole plants were sprayed to “drip” on both the top and bottom sides of leaves. Results are presented as the proportion of aphids found dead. Results were as follows: control plant (0.5% saponin only) 14.8% ±4.5; 0.5% CNMA 48.3±16.1; 1.0% CNMA 72.0±11.2.

[3] = tested on: Adult male cockroaches (Dictyoptera; Blattelidae); assay: German cockroach topical application bioassay; type: in vivo, German cockroaches; conditions: 2% (20,000 ppm) in aqueous vehicle (2% Tween 80, 6% NaHCO3); 5 ml spray; within five minutes
Method: Adult male cockroaches (Dictyoptera; Blattelidae) were used to evaluate insecticidal activity of cinnamic aldehyde and/or coniferyl aldehyde by a topical application method.
Twenty cockroaches were placed in stainless steel pails (20 liter) with lids. After one week provisioned with food, water and harborage, they were sprayed with 5 ml of a test formulation at arm's length (approximately 1 meter) using a Gilmour spray bottle. The number of dead or moribund cockroaches at 5 minutes, 30 minutes, 1 hour and 12 hours after treatment was counted and compared to those untreated (diluent only). Raid (active ingredients: permethrin, pyrethrins and PBO) was used as a positive control. Within five minutes, all cockroaches treated with 2% cinnamic aldehyde (20,000 ppm) in aqueous vehicle (2% Tween 80, 6% NaHCO3) were dead, as were all those treated with Raid. Ten percent of those treated with vehicle alone were dead in 30 minutes, with no further increase in mortality up to 12 hours.

[4] = tested on: two-spotted spider mite, Tetranychus urticae; assay: Spider mite treated petri dish contact bioassay; type: in vivo; conditions: Tetranychus urticae, 24 hours contact, read-out: Percent Mortality (24 hours)
Method: Activity of cinnamic aldehyde and/or coniferyl aldehyde against two-spotted spider mite, Tetranychus urticae is determined as follows. In a double blind experiment, intersurfaces of petri dishes (60 mm diameter) were treated with 100 μl of a test formulation and allowed to air dry and used within the hour. Twenty adult spider mites were put in each dish and the percent of mortality of the spider mites after 24 hours in contact with the treated dishes Was determined.

[5] = tested on: melon aphid (Aphis gossypii Glover); assay: Melon aphid plant foliar bioassay on flowering chrysanthemums; type: in vivo; conditions: each concentration (1,000, 3,000, 10,000 ppm); after 36 hours; pre-count mean of about 60
Method: Treatment of melon aphid (Aphis gossypii Glover) is conducted as follows. Plants were grown in […] pots in planting soil in greenhouse. Chrysantemums (c. morifolum) were used for melon aphid plant foliar bioassays.
Flowering plants were infested and pre-count population size for each plant were taken and number of mean of aphids nymphs per leaf calculated. The plants were sprayed to runoff (about 5 ml) with an aqueous formulation containing 1,000 ppm, 3,000 ppm, and 10,000 ppm concentration of cinnamic aldehyde, and a negative control containing only H2O. After 36 hours, the number of insects on the leaves sprayed with a given test formulation was determined and compared with that of insects on leaves sprayed with negative control only. Mean aphid nymphs per leaf were determined to be less than 10 for each cinnamic aldehyde concentration compared to a pre-count mean of about 60.

[6] = tested on: thrips insects (Frankliniella occidentalis); assay: Residual activity on treated filter paper against thrips; type: in vivo; conditions: rehydrated 24 and 72 hours after spraying, thrips exposed one hour
Method: In the first experiment, two ml of two concentrations of CNMA (0.3 and 1%) were sprayed on filter paper (Whatman). As a negative control, two ml of water was also sprayed on filter paper. Twenty-four hours later, two ml of water were sprayed on treatment and control filter paper, which were then dried for 30 min. Approximately 30 thrips insects (Frankliniella occidentalis) were introduced onto the treated filter papers and the number of F. occidentalis were observed after one hour. Mean mortality was calculated for each treatment. After 72 hours, the treated filter papers were flipped over and only the negative control filter paper and the filter paper treated with 1% CNMA were sprayed with 2 ml of water and allowed to dry for 30 minutes. Approximately 30 thrips were introduced onto the two treated filter papers and after one hour the number of dead F. occidentalis were observed and the mean mortality calculated for each treatment. A similar assay was conducted using AHCNMA. Mean mortality was higher for rehydrated filter papers compared to non-rehydrated filter papers over time.

How did the mortality at 20000 ppm [1] turn out when `O=C/C=C/c1ccccc1` [CNMA, cinnamic aldehyde] was run?
Its mortality at 20000 ppm is 100%.

And the “proportion of aphids found dead” value ([2]; 0.5% CNMA plus […] saponin)?
The value was 48.3±16.1%.

What about the “proportion of aphids found dead” value ([2]; 1.0% CNMA plus 0.5% saponin) of the same molecule?
Its value is 72.0±11.2%.

And the cockroaches dead [3]?
The cockroaches dead was “all”.

And the mortality at 10 ppm ([4]; 10 ppm in 2% Tween 80, 6% NaHCO3)?
The mortality at 10 ppm was 51.7%.

And the mortality at 100 ppm ([4]; 100 ppm in 2% Tween 80, 6% NaHCO3)?
Its mortality at 100 ppm is 56%.

What about the mortality at 2500 ppm ([4]; 2,500 ppm in 2% Tween 80, 6% NaHCO3) of the same molecule?
The mortality at 2500 ppm was 78%.

And the mortality at 5000 ppm ([4]; 5,000 ppm in 2% Tween 80, 6% NaHCO3)?
The mortality at 5000 ppm was 66.4%.

What about the mortality at 12500 ppm ([4]; 12,500 ppm in 2% Tween 80, 6% NaHCO3) of the same molecule?
Its mortality at 12500 ppm is 98.6%.

What about the mortality at 25000 ppm ([4]; 25,000 ppm in 2% Tween 80, 6% NaHCO3) of the same molecule?
Its mortality at 25000 ppm is 99.2%.

What about the “Mean aphid nymphs per leaf” value [5] of the same molecule?
The value was “less than 10”.

And the “residual activity in words” value [6]?
Its value is “residual activity”.

— patent US6750256B1, “Use of aromatic aldehydes as insecticides” (Proguard, Inc., priority 1994, dated 2004)
